Assay results published in patent US10550383B2, “Galvanotaxis assay for quantitative assessment of the metastatic potential of cancer cells” (Ohio State Innovation Foundation, priority 2013, dated 2020).

Experiments:
Type in all cases: cell-based, human
SCP2 cells [1] = assay: modified transmembrane assay, chemotaxis of SCP2 cells; conditions: 100 ng/mL in lower chamber, 8 hours, no induced electric field; Control vs SDF control p=0.015, Control vs EGF control p=0.001 (FIG. 4)
Experimental: Highly metastatic breast cancer cells known as SCP2, a single cell population derived from MDA-MB-231 that is known to metastasize to the bone, were cultured in Dulbecco's Modified Eagle Medium (DMEM; Life Technologies, Gaithersburg, Md., USA), supplemented with 10% heat inactivated fetal bovine serum (FBS), 5 U/mL penicillin, and 5 mg/mL streptomycin. The SCP2 cells were placed in the upper chamber, and both compartments contained 0.1% FBS-DM. The entire apparatus (holder, coil, modified transmembrane chambers with Transwell inserts and cells) was placed in a 37° C. culture incubator with humidified air containing 5% CO2. The leads of the coil were connected to the function generator placed outside the incubator. The cells were allowed to migrate for 8 hours, and then were fixed and stained using Hema-3 stain kit according to the manufacturer's instructions. The number of migratory cells per membrane was then measured using light microscopy by counting the total number of cells in each of five contiguous images spanning radially outward (five fields) from the coil (FIG. 9). […]
In one embodiment, low passage SCP2 cells were cultured in Dulbecco's Modified Eagle's Media (DMEM) containing 10% fetal bovine serum (FBS) and 5 U/mL penicillin, and 5 mg/mL streptomycin at 37° C. in a humidified culture incubator supplied with 5% CO2. […] The cells were counted using a hemocytometer. […]

SCP2 cells [2] = assay: visualization of actin filaments by phalloidin staining and fluorescence microscopy; conditions: EGF 100 ng/mL, one hour, no induced electric field (FIG. 6a middle panel)
Experimental: The present invention allows the visualization of actin filaments that form the cytoskeleton of the SCP2 cells and play a crucial role in cell migration, when induced electric fields are applied in a non-contact manner as described earlier (FIG. 6). The images are quantified to determine the actin filament distribution within the cell as represented by the fluorescence intensity. In one embodiment, SCP2 cells are plated on a single-well, 60 mm diameter culture plate, allowed to migrate freely for an hour, and then fixed and stained with phalloidin-fluorophore conjugate for visualization of the actin filaments (FIG. 6a, left panel). […] These images have also been quantified after importing into MATLAB (FIGS. 18-20). […]
Analysis of actin filament distribution: images obtained from phalloidin and fluorescence microscopy are imported into MATLAB (2014a, Mathworks, Inc., Massachusetts, U.S.A.). […] Intensities are then separated into red, green, and blue so that the background and nuclei intensities may be filtered out and only the green fluorescence from the actin filaments is extracted. Actin fluorescence intensities are analyzed versus cell length (longer dimension being the length), and averaged.

MCF-10A cells = assay: modified transmembrane assay, migration of MCF-10A cells; conditions: 50 ng/mL EGF in lower chamber, 16 hours, no induced electric field (-E+EGF, FIG. 22)
Experimental: Weak a.c. electric fields hinder chemotaxis of “normal” breast epithelial cells. Experiments on combined chemotaxis and electrotaxis were performed with MCF10A cells in the same modified transmembrane assay in order to examine the effects of the induced a.c. electric field in hindering chemotaxis of non-transformed cells. MCF-10A cells are a non-transformed epithelial cell line derived from human fibrocystic mammary tissue. These cells are considered “normal” breast epithelial cells as they have a karyotype that is nearly diploid, are dependent on externally supplied growth factors for migration, and lack the ability to form tumors in nude mice. The growth factor EGF was used as an exogenous agent to induce MCF-10A cells to migrate in the modified transmembrane assay, as in the case of the SCP2 cells. No migration of MCF-10A cells was observed without EGF in the bottom chamber. […]
In one embodiment, MCF10A cells were cultured in Dulbecco's Modified Eagle's Media (DMEM) F12 containing 5% horse serum (HS), 20 ng/ml epidermal growth factor (EGF), 0.5 mg/ml hydrocortisone, 100 ng/ml cholrea toxin, 10 μg/ml insulin and 5 U/mL penicillin, and 5 mg/mL streptomycin at 37° C. in a humidified culture incubator supplied with 5% CO2. […] After allowing migration for 16 hours, cells were stained, photographed and counted as described for the preparation of the SCP2 cells. […]

Substance	migration of SCP2 cells (chemotaxis) versus control (SCP2 cells [1])	actin filament polymerization in SCP2 cells (SCP2 cells [2])	migration of MCF-10A cells (MCF-10A cells)
SDF-1α	chemotaxis is well enabled	–	–
EGF: growth factor placed in the lower chamber to induce cell migration	chemotaxis is well enabled	polymerization of actin filaments can be observed at one end of some cells	strongly promotes migration
